Data reported in patent publication US20180251431A1 (VERTEX PHARMACEUTICALS INCORPORATED, priority 2016, published 2018).

Legend:
[1] = Metabolic intrinsic clearance in monkey hepatocytes; type: in vitro ADME, cynomolgus monkey; conditions: cryopreserved hepatocytes in suspension, pH 7.5, 0.5 million cells/mL, incubation for 4 hours
Experimental: The metabolic intrinsic clearance (CLint) of Compound 87 was determined in human, monkey, dog, rat, and mouse hepatocytes. Cryopreserved human hepatocytes (Lot Hue50c), monkey hepatocytes (cynomolgus; Lot Cy328), dog hepatocytes (beagle, Lot Db235), rat hepatocytes (Sprague Dawley; NNH), and mouse hepatocytes (CD-1; Lot Mc522) were obtained from ThermoFisher (Paisley, UK). In separate experiments, compound 87 (1 μM) was incubated with hepatocytes from each species (0.5 million cells/mL, suspension) in Dulbecco's Modified Eagle's Medium (DMEM) supplemented with 4-(2-Hydroxyethyl)piperazine-1-ethanesulfonic acid (HEPES, 9 mM) and fructose (2.2 mM) (pH 7.5). Samples were quenched with acetonitrile and analyzed by LC-MS/MS. The mean CLint for Compound 87 in human, monkey, dog, rat, and mouse hepatocytes after incubation for 4 hours was determined to be ≤2.5, ≤2.5, 7.2, 23.6 and 10.7 μL/min/million cells. Based on these date, Compound 87 was low to moderately metabolized in hepatocytes in mouse, rat, dog, monkey, and human, and the rank order of stability at […] was approximately human>monkey>dog>mouse>rat. […] The metabolic stability of Compound 87 was not expected.

[2] = test system: wild-type male cynomolgus monkeys; experiment: Reduction of blood C26:0 LPC in vivo in cynomolgus monkeys; parameters: species or system cynomolgus monkey; conditions: 30 mg/kg PO QD, after 7 days of dosing
Experimental: A LC-MS/MS method of analyzing Lysophosphatidylcholine (LPC) in whole blood (dried blood spot card, DBS) and brain tissue samples was developed for measuring the abundance of saturated C16, C18, C20, C22, C24 and C26 LPC in DBS and brain samples. Whole blood was collected with Whatman DMPK-C DBS card at an approximate volume of 20 μL at each time point. Brain tissue was collected at the end point of the study. Samples were prepared and LC-MS/MS analysis was performed as described below.
For DBS bioanalysis, the DBS card was punched at 3 mm in diameter using a semi-automated DBS card puncher. To each punched spot 200 μL of pure methanol was added. […]
The supernatant obtained from each sample was injected into a LC-MS/MS system (Agilent Technologies, Santa Clara, Calif. and Applied Biosystems, Framingham, Mass.) for analysis. […] LPCs were detected by an AB Sciex API-6500 triple quadrupole MS with electrospray ionization in the mode of multiple reaction monitoring. Ions of Q1 were monitored at m/z of 496.6, 524.6, 552.6, 580.6, 608.6 and 636.6 for LPC 16:0, LPC 18:0, LPC 20:0, LPC 22:0, LPC 24:0 and LPC 26:0, respectively. […] C16:0 LPC levels were expressed as a concentration. […]
The vehicle used was 2% TPGS and Compound 87 doses were prepared in 2% TPGS. […] DBS cards were stored at 4° C. until they could be analyzed for VLCFAs. DBS samples were prepared and analyzed using LC-MS/MS as described above.

hepatocyte CLint at 1 μM [1]: ≤ 2.5 µL/min/1e6 cells
Compound: O=C(Nc1ccn(-c2ccnc(F)c2)n1)C1(c2ccccc2F)CC1 [Compound 87, 1-(2-fluorophenyl)-N-[1-(2-fluoro-4-pyridyl)pyrazol-3-yl]cyclopropanecarboxamide]
reduction in blood C26:0 LPC [2]: ~50%
